# Structures can show the parent of a compound that is named as a salt. Where two headings read alike, the source gives them in different places.
# Assays:
# Assay in all cases: AK assay 384-well format, Prestwick library screening
# E. cloacae = type: cell-based, Enterobacter cloacae; details: Enterobacter cloacae, 3 h, 50 μM final drug concentration
# K. pneumoniae = type: cell-based, Klebsiella pneumoniae; details: Klebsiella pneumoniae, 3 h, 50 μM final drug concentration
# E. coli = type: cell-based, Escherichia coli; details: Escherichia coli, 3 h, 50 μM final drug concentration
# E. faecium = type: cell-based, Enterococcus faecium; details: Enterococcus faecium, 3 h, 50 μM final drug concentration
# P. aeruginosa = type: cell-based, Pseudomonas aeruginosa; details: Pseudomonas aeruginosa, 3 h, 50 μM final drug concentration
# [1] = system: S. aureus strain USA300-0114; type: cell-based, Staphylococcus aureus; details: Staphylococcus aureus, USA300, 3 h, 50 μM final drug concentration
# [2] = system: A. baumannii strain 98-37-09; type: cell-based, Acinetobacter baumannii; details: Acinetobacter baumannii, 983709, 3 h, 50 μM final drug concentration
# [3] = cutoff for positive-scoring molecules 3-fold increase, read-out: AK-based Prestwick Library Screening Results, E. cloacae (fold increase in extracellular AK activity)
# [4] = cutoff for positive-scoring molecules 3-fold increase, read-out: AK-based Prestwick Library Screening Results, K. pneumoniae (fold increase in extracellular AK activity)
# [5] = cutoff for positive-scoring molecules 3-fold increase, read-out: AK-based Prestwick Library Screening Results, E. coli (fold increase in extracellular AK activity)
# [6] = cutoff for positive-scoring molecules 3-fold increase, read-out: AK-based Prestwick Library Screening Results, E. faecium (fold increase in extracellular AK activity)
# [7] = cutoff for positive-scoring molecules 3-fold increase, read-out: AK-based Prestwick Library Screening Results, P. aeruginosa (fold increase in extracellular AK activity)
# [8] = cutoff for positive-scoring molecules 3-fold increase, read-out: AK-based Prestwick Library Screening Results, S. aureus (fold increase in extracellular AK activity)
# [9] = cutoff for positive-scoring molecules 3-fold increase, read-out: AK-based Prestwick Library Screening Results, A. baumannii (fold increase in extracellular AK activity)
# [10] = planktonic E. cloacae, 384-well, cutoff for positive-scoring molecules 3-fold increase, read-out: AK-based Prestwick Library Screening Results: E. cloacae (increase in extracellular AK activity)
# [11] = planktonic K. pneumoniae, 384-well, cutoff for positive-scoring molecules 3-fold increase, read-out: AK-based Prestwick Library Screening Results: K. pneumoniae (increase in extracellular AK activity)
# [12] = planktonic E. coli, 384-well, cutoff for positive-scoring molecules 3-fold increase, read-out: AK-based Prestwick Library Screening Results: E. coli (increase in extracellular AK activity)
# [13] = planktonic E. faecium, 384-well, cutoff for positive-scoring molecules 3-fold increase, read-out: AK-based Prestwick Library Screening Results: E. faecium (increase in extracellular AK activity)
# [14] = planktonic P. aeruginosa, 384-well, cutoff for positive-scoring molecules 3-fold increase, read-out: AK-based Prestwick Library Screening Results: P. aeruginosa (increase in extracellular AK activity)
# [15] = planktonic S. aureus, 384-well, cutoff for positive-scoring molecules 3-fold increase, read-out: AK-based Prestwick Library Screening Results: S. aureus (increase in extracellular AK activity)
# [16] = planktonic A. baumannii, 384-well, cutoff for positive-scoring molecules 3-fold increase, read-out: AK-based Prestwick Library Screening Results: A. baumannii (increase in extracellular AK activity)
# [17] = planktonic, cutoff for positive 3-fold increase, read-out: AK-based Prestwick Library Screening Results, E. cloacae (fold increase in extracellular AK activity)
# [18] = planktonic, cutoff for positive 3-fold increase, read-out: AK-based Prestwick Library Screening Results, K. pneumoniae (fold increase in extracellular AK activity)
# [19] = planktonic, cutoff for positive 3-fold increase, read-out: AK-based Prestwick Library Screening Results, E. coli (fold increase in extracellular AK activity)
# [20] = planktonic, cutoff for positive 3-fold increase, read-out: AK-based Prestwick Library Screening Results, E. faecium (fold increase in extracellular AK activity)
# [21] = planktonic, cutoff for positive 3-fold increase, read-out: AK-based Prestwick Library Screening Results, P. aeruginosa (fold increase in extracellular AK activity)
# [22] = planktonic, cutoff for positive 3-fold increase, read-out: AK-based Prestwick Library Screening Results, S. aureus (fold increase in extracellular AK activity)
# [23] = planktonic, cutoff for positive 3-fold increase, read-out: AK-based Prestwick Library Screening Results, A. baumannii (fold increase in extracellular AK activity)
# [24] = planktonic, cutoff for positive-scoring molecules 3-fold increase, read-out: AK-based Prestwick Library Screening Results, E. cloacae (fold increase in extracellular AK activity)
# [25] = planktonic, cutoff for positive-scoring molecules 3-fold increase, read-out: AK-based Prestwick Library Screening Results, K. pneumoniae (fold increase in extracellular AK activity)
# [26] = planktonic, cutoff for positive-scoring molecules 3-fold increase, read-out: AK-based Prestwick Library Screening Results, E. coli (fold increase in extracellular AK activity)
# [27] = planktonic, cutoff for positive-scoring molecules 3-fold increase, read-out: AK-based Prestwick Library Screening Results, E. faecium (fold increase in extracellular AK activity)
# [28] = planktonic, cutoff for positive-scoring molecules 3-fold increase, read-out: AK-based Prestwick Library Screening Results, P. aeruginosa (fold increase in extracellular AK activity)
# [29] = planktonic, cutoff for positive-scoring molecules 3-fold increase, read-out: AK-based Prestwick Library Screening Results, S. aureus (fold increase in extracellular AK activity)
# [30] = planktonic, cutoff for positive-scoring molecules 3-fold increase, read-out: AK-based Prestwick Library Screening Results, A. baumannii (fold increase in extracellular AK activity)
# [31] = planktonic E. cloacae, cutoff for positive-scoring molecules 3-fold increase, read-out: AK-based Prestwick Library Screening Results, E. cloacae (increase in extracellular AK activity)
# [32] = planktonic K. pneumoniae, cutoff for positive-scoring molecules 3-fold increase, read-out: AK-based Prestwick Library Screening Results, K. pneumoniae (increase in extracellular AK activity)
# [33] = planktonic E. coli, cutoff for positive-scoring molecules 3-fold increase, read-out: AK-based Prestwick Library Screening Results, E. coli (increase in extracellular AK activity)
# [34] = planktonic E. faecium, cutoff for positive-scoring molecules 3-fold increase, read-out: AK-based Prestwick Library Screening Results, E. faecium (increase in extracellular AK activity)
# [35] = planktonic P. aeruginosa, cutoff for positive-scoring molecules 3-fold increase, read-out: AK-based Prestwick Library Screening Results, P. aeruginosa (increase in extracellular AK activity)
# [36] = planktonic S. aureus, cutoff for positive-scoring molecules 3-fold increase, read-out: AK-based Prestwick Library Screening Results, S. aureus (increase in extracellular AK activity)
# [37] = planktonic A. baumannii, cutoff for positive-scoring molecules 3-fold increase, read-out: AK-based Prestwick Library Screening Results, A. baumannii (increase in extracellular AK activity)
structure (smiles),measurement,setting,value
CO[C@@]1(NC(=O)CSCC#N)C(=O)N2C(C(=O)O)=C(CSc3nnnn3C)CS[C@@H]21 [Cefmetazole sodium salt],fold induction at 50 µM,E. cloacae; [3],1.6
same,fold induction at 50 µM,K. pneumoniae; [4],4.6
same,fold induction at 50 µM,E. coli; [5],20
same,fold induction at 50 µM,E. faecium; [6],1.4
same,fold induction at 50 µM,P. aeruginosa; [7],1
same,fold induction at 50 µM,[1]; [8],5
same,fold induction at 50 µM,[2]; [9],1.4
CCN1CCN(C(=O)N[C@@H](C(=O)N[C@@H]2C(=O)N3C(C(=O)O)=C(CSc4nnnn4C)CS[C@H]23)c2ccc(O)cc2)C(=O)C1=O [Cefoperazone dihydrate],fold induction at 50 µM,E. cloacae; [10],12
same,fold induction at 50 µM,K. pneumoniae; [11],2.1
same,fold induction at 50 µM,E. coli; [12],16.5
same,fold induction at 50 µM,E. faecium; [13],0.9
same,fold induction at 50 µM,P. aeruginosa; [14],5.2
same,fold induction at 50 µM,[1]; [15],0.7
same,fold induction at 50 µM,[2]; [16],0.7
NCc1ccccc1CC(=O)N[C@@H]1C(=O)N2C(C(=O)O)=C(CSc3nnnn3CC(=O)O)CS[C@H]12 [Ceforanide],fold induction at 50 µM,E. cloacae; [17],1.9
same,fold induction at 50 µM,K. pneumoniae; [18],3.1
same,fold induction at 50 µM,E. coli; [19],12.2
same,fold induction at 50 µM,E. faecium; [20],1
same,fold induction at 50 µM,P. aeruginosa; [21],1.2
same,fold induction at 50 µM,[1]; [22],1.8
same,fold induction at 50 µM,[2]; [23],1.8
CO/N=C(\C(=O)N[C@@H]1C(=O)N2C(C(=O)O)=C(COC(C)=O)CS[C@H]12)c1csc(N)n1 [Cefotaxime sodium salt],fold induction at 50 µM,E. cloacae; [10],22
same,fold induction at 50 µM,K. pneumoniae; [11],5.5
same,fold induction at 50 µM,E. coli; [12],21.9
same,fold induction at 50 µM,E. faecium; [13],1
same,fold induction at 50 µM,P. aeruginosa; [14],10
same,fold induction at 50 µM,[1]; [15],2.9
same,fold induction at 50 µM,[2]; [16],2.2
CO[C@@]1(NC(=O)C2SC(=C(C(N)=O)C(=O)O)S2)C(=O)N2C(C(=O)O)=C(CSc3nnnn3C)CS[C@@H]21 (some centres unmarked) [Cefotetan],fold induction at 50 µM,E. cloacae; [17],25.3
same,fold induction at 50 µM,K. pneumoniae; [18],8.4
same,fold induction at 50 µM,E. coli; [19],22.1
same,fold induction at 50 µM,E. faecium; [20],1.2
same,fold induction at 50 µM,P. aeruginosa; [21],1.2
same,fold induction at 50 µM,[1]; [22],2.5
same,fold induction at 50 µM,[2]; [23],2
CN(C)CCn1nnnc1SCC1=C(C(=O)O)N2C(=O)[C@@H](NC(=O)Cc3csc(N)n3)[C@H]2SC1 [Cefotiam hydrochloride],fold induction at 50 µM,E. cloacae; [10],15.6
same,fold induction at 50 µM,K. pneumoniae; [11],7.8
same,fold induction at 50 µM,E. coli; [12],23.9
same,fold induction at 50 µM,E. faecium; [13],0.9
same,fold induction at 50 µM,P. aeruginosa; [14],0.6
same,fold induction at 50 µM,[1]; [15],2.3
same,fold induction at 50 µM,[2]; [16],0.9
CO[C@@]1(NC(=O)Cc2cccs2)C(=O)N2C(C(=O)O)=C(COC(N)=O)CS[C@@H]21 [Cefoxitin sodium salt],fold induction at 50 µM,E. cloacae; [24],1.2
same,fold induction at 50 µM,K. pneumoniae; [25],3.2
same,fold induction at 50 µM,E. coli; [26],20.1
same,fold induction at 50 µM,E. faecium; [27],1
same,fold induction at 50 µM,P. aeruginosa; [28],0.8
same,fold induction at 50 µM,[1]; [29],3.4
same,fold induction at 50 µM,[2]; [30],1.3
NC(=O)c1cc[n+](CC2=C(C(=O)O)N3C(=O)[C@@H](NC(=O)[C@@H](c4ccccc4)S(=O)(=O)[O-])[C@H]3SC2)cc1 [Cefsulodin sodium salt],fold induction at 50 µM,E. cloacae; [24],0.9
same,fold induction at 50 µM,K. pneumoniae; [25],0.7
same,fold induction at 50 µM,E. coli; [26],0.9
same,fold induction at 50 µM,E. faecium; [27],0.9
same,fold induction at 50 µM,P. aeruginosa; [28],8.6
same,fold induction at 50 µM,[1]; [29],1
same,fold induction at 50 µM,[2]; [30],1.1
CC(C)(O/N=C(\C(=O)N[C@@H]1C(=O)N2C(C(=O)[O-])=C(C[n+]3ccccc3)CS[C@H]12)c1csc(N)n1)C(=O)O [Ceftazidime pentahydrate],fold induction at 50 µM,E. cloacae; [31],12.9
same,fold induction at 50 µM,K. pneumoniae; [32],3.2
same,fold induction at 50 µM,E. coli; [33],11.5
same,fold induction at 50 µM,E. faecium; [34],0.9
same,fold induction at 50 µM,P. aeruginosa; [35],7.8
same,fold induction at 50 µM,[1]; [36],0.4
same,fold induction at 50 µM,[2]; [37],0.5
CO/N=C(\C(=O)N[C@@H]1C(=O)N2C(C(=O)O)=C(COC(N)=O)CS[C@H]12)c1ccco1 [Cefuroxime sodium salt],fold induction at 50 µM,E. cloacae; [3],1.6
same,fold induction at 50 µM,K. pneumoniae; [4],2.4
same,fold induction at 50 µM,E. coli; [5],12.1
same,fold induction at 50 µM,E. faecium; [6],1
same,fold induction at 50 µM,P. aeruginosa; [7],1.6
same,fold induction at 50 µM,[1]; [8],3.4
same,fold induction at 50 µM,[2]; [9],1.4
CC1=C(C(=O)O)N2C(=O)[C@@H](NC(=O)[C@H](N)c3ccccc3)[C@H]2SC1 [Cephalexin monohydrate],fold induction at 50 µM,E. cloacae; [31],1.4
same,fold induction at 50 µM,K. pneumoniae; [32],0.7
same,fold induction at 50 µM,E. coli; [33],0.8
same,fold induction at 50 µM,E. faecium; [34],0.9
same,fold induction at 50 µM,P. aeruginosa; [35],0.8
same,fold induction at 50 µM,[1]; [36],0.7
same,fold induction at 50 µM,[2]; [37],0.9

# From US10004701B2, “Methods and compositions for treating infection” (UNIVERSITY OF ROCHESTER, priority 2012, dated 2018)
